# Assays:
# [1] = Equilibrium solubility of the drugs in PVP solutions (shake-flask solubility test); assay type: physicochemical
# Description: An excess amount of the drug was added to 15 mL corning tubes containing either pure 0.1 M phosphate buffer (pH 7.4) or 0.1, 0.5 and 1% (w/v) solutions of PVP K15, K30, K60 or […], respectively. […] The saturated solution and the precipitate were separated by centrifugation for 10 min at 13,000 rpm in an Eppendorf Centrifuge 5810 R (Hamburg, Germany), followed by filtration intro ultra-performance liquid chromatography (UPLC) vials using a syringe filter (33 mm, 0.45 μm) PVDF membrane (2 mL filter sample prewet volume), acquired from Merck (Darmstadt, Germany). The tests were conducted in triplicate. The concentration of drug in the respective samples was quantified by reverse-phase chromatography using a Waters Acquity Classic UPLC system (Milford, MA, USA) equipped with an automated sample injector, a binary pump and a tunable UV detector. All samples were analyzed using a Waters Acquity UPLC BEH C18 column (130 Å, 1.7 μm, 2.1 × 50 mm) (Milford, MA, USA) at a column temperature of 50 °C for ketoconazole and tadalafil and 80 °C for albendazole. The samples were injected with a volume of s 6 μL and subsequently eluted at a flow rate of 0.8 mL/min. For albendazole and tadalafil, eluent A was a mixture of 90% (v/v) sodium sulfate (60 mM), di-ammonium hydrogen phosphate (5.5 mM) and phosphoric acid (34.5 mM) in Milli-Q water (pH 2.3) and 10% (v/v) acetonitrile. For ketoconazole, eluent A was a mixture of 90% (v/v) sodium sulfate (60 mM), di-ammonium hydrogen phosphate (5.5 mM) and phosphoric acid (34.5 mM) in Milli-Q water (pH 7.2) and 10% (v/v) acetonitrile. For tadalafil, albendazole and ketoconazole, eluent B was a mixture of 20% (v/v) Milli-Q water and 80% (v/v) acetonitrile. Albendazole was quantified in the samples using UV at a wavelength of 229 nm, while tadalafil was quantified at 284 nm and ketoconazole at 240 nm.
# [2] = Supersaturation study by solvent-shift method (µDISS Profiler): induction time and slope of time–concentration profiles; assay type: physicochemical; conditions: for Influence of PVP concentration on tind and slope of the time–concentration profile / Influence of viscosity of the PVP solution on tind or slope of the time–concentration profile: multiple linear regression coefficient plot, 95% confidence interval
# Excerpt: Time-concentration profiles of the drugs in a supersaturated solution in the absence and presence of PVP were obtained to study the influence of the polymer on the onset of the nucleation and precipitation rate of the drug from a supersaturated solution. Supersaturation of the drug was induced by the use of a method previously developed. Briefly, a […] ProfilerTM (Billerica, MA, USA) was used to obtain in situ UV spectra in the range from 200 to 720 nm. Probe tip lengths of 5, 10 or 20 mm were selected to obtain an absorbance in the range between 0.3 and 1. The vials were stirred using a crossbar magnet at ~100 rpm at a temperature of 37 °C. […] The UV wavelength range used to quantify the drug was 267-288 nm for albendazole, 304-360 nm for ketoconazole and 299-328 nm for tadalafil. […] Standard curves were prepared with six replicates by adding aliquots of 15 μL DMSO stock solution of the drug to the dissolution medium. The initial concentration of the drug was determined by using the highest concentration of the drug for which no instantaneous precipitation occurred. Precipitation was detected by a deviation from the linearity of the standard curve, a sharp shift in the baseline in the UV spectrum or through visual inspection of the solution. To induce supersaturation, 100 μL of a DMSO stock solution of the drug was transferred into glass vials containing 10 mL solutions of PVP K15, K30, K60 or […]. […] The drug concentration was monitored in situ by the second derivative of the UV absorbance. The second derivative was used to minimize UV interferences from the precipitate. The experiments were ended when the concentrations of the respective drugs reached their equilibrium solubility. The induction time of the time-concentration profiles was used as a surrogate for the onset of the nucleation of the respective drugs, and the slope of the time-concentration profiles was used as a surrogate for the precipitation rate of the respective drugs. The induction time (tind) and the slope of the time-concentration profile were determined using TA Instruments Trios software (New Castle, DE, USA). The induction time of the time-concentration profile in minutes was estimated using the onset time function via the tangent. The slope of the time-concentration profile in (μg/mL)/min was estimated using the slope function. Multiple linear regression analysis was conducted using Umetrics MODDE11 pro (Glostrup, Denmark) to delineate the influence of PVP molecular weight and concentration on the onset of nucleation and the precipitation rate of albendazole, tadalafil and ketoconazole. The tind and slope from the time-concentration profiles were used as the response values, whereas PVP concentration and the viscosity of the PVP solutions were used as the input predictors. It should be noted that the viscosity of the PVP solutions is used instead of the molecular weights of PVP, and therefore, the impact of the viscosity of solutions of PVP is the same as that of the molecular weight. The three levels for the concentration factor were 0.1, 0.5 and 1% (w/v), and the four levels for the viscosity factor were the viscosities of the solutions of PVP K15, K30, K60 and […]. […] The equilibrium solubility, viscosity of the PVP solutions, tind and slope of time-concentration profile during supersaturation of the drugs are given as the mean ± standard deviation (SD). […] Microsoft Excel (Redmond, WA, USA) was used for this analysis. The criteria for determining statistical significance in all tests were set at p < 0.05.
# [3] = design: method as in PMID 29481859; conditions: absence of polymer; cited from earlier work
# [4] = same concentration of repeating monomer units of PVP K15, K30, K60 and K120 (effect of molecular weight), p > 0.05
# [5] = solution of 0.1% (w/v) PVP compared to the phosphate buffer pH 7.4, 37 °C, ANOVA
# [6] = solutions of 0.5 and 1% (w/v) PVP, pH 7.4, 37 °C, ANOVA p < 0.05
# [7] = 1 mPa.s isoviscous solutions of PVP K15, K30, K60 and K120, increasing PVP molecular weight, p < 0.05
# [8] = PVP K15, K30, K60 and K120, PVP concentration increased from 0.1 to 0.5% and again from 0.5 to 1% (w/v), ANOVA p < 0.05
# [9] = PVP K15, K30, K60 and K120, concentration increased from 0.1 to 0.5% and again from 0.5 to 1% (w/v), p < 0.05
# [10] = PVP K15, K30, K60 and K120 compared at the same concentration (0.1, 0.5, 1% w/v), p > 0.05
# [11] = same concentrations (0.1, 0.5, 1% w/v) of PVP K15, K30, K60 and K120 (effect of molecular weight), p > 0.05
"Equilibrium solubility [1, 4]","Slope of the time–concentration profile (precipitation rate) [2, 7]",Influence of PVP concentration on tind and slope of the time–concentration profile [2],Influence of viscosity of the PVP solution on tind or slope of the time–concentration profile [2],"Induction time (tind) [2, 11]","Equilibrium solubility ([1]; solutions of 0.1% and 0.5% (w/v) PVP compared to phosphate buffer, p < 0.05)","Slope of the time–concentration profile (precipitation rate) ([2]; 0.1% (w/v) PVP K15 compared with PVP K30, K60 and K120, p < 0.05)","Slope of the time–concentration profile (precipitation rate) ([2]; PVP K15, K30, K60 and K120, concentration increased from 0.1 to 0.5% (w/v), p < 0.05)","Induction time (tind) ([2]; PVP K15, concentration increased from 0.1 to 0.5% and again from 0.5 to 1% (w/v), p < 0.05)","Induction time (tind) ([2]; PVP K30, concentration increased from 0.1 to 0.5% (w/v), p > 0.05)","Induction time (tind) ([2]; PVP K30, concentration increased from 0.5 to 1% (w/v), p < 0.05)","Induction time (tind) ([2]; PVP K60 and K120, concentration increased from 0.1 to 0.5% and again from 0.5 to 1% (w/v), p > 0.05)",Structure (SMILES),"Equilibrium solubility [1, 5]","Equilibrium solubility [1, 6]","Induction time (tind) [2, 8]","Slope of the time–concentration profile (precipitation rate) [2, 9]","Slope of the time–concentration profile (precipitation rate) [2, 10]",Onset time of nucleation [3],"Equilibrium solubility ([1]; increasing the concentration of PVP to 1% (w/v), p < 0.05)"
,,,,,,,,,,,,NS(=O)(=O)c1cc2c(cc1Cl)N=C(CSCc1ccccc1)NS2(=O)=O [benzthiazide],,,,,,4 min,
No statistically significant increase,statistically significant difference,significant influence,no significant influence,no statistically significant differences,statistically significant increase,statistically significant difference,statistically significant difference,statistically significant increase,no statistically significant increase,statistically significant increase,no statistically significant differences,CC(=O)N1CCN(c2ccc(OCC3COC(Cn4ccnc4)(c4ccc(Cl)cc4Cl)O3)cc2)CC1 (stereo not shown) [ketoconazole],,,,,,,further statistically significant increase
No statistically significant increase,statistically significant difference,significant influence,no significant influence,no statistically significant differences,,,,,,,,CN1CC(=O)N2[C@H](c3ccc4c(c3)OCO4)c3[nH]c4ccccc4c3C[C@@H]2C1=O [tadalafil],no statistically significant increase,statistically significant increase,statistically significant increase,statistically significant difference,no statistically significant differences,,

Structure (SMILES),"Equilibrium solubility [1, 4]","Slope of the time–concentration profile (precipitation rate) [2, 7]",Influence of PVP concentration on tind and slope of the time–concentration profile [2],Influence of viscosity of the PVP solution on tind or slope of the time–concentration profile [2],"Induction time (tind) [2, 11]","Equilibrium solubility ([1]; solutions of 0.1% and 0.5% (w/v) PVP compared to phosphate buffer, p < 0.05)","Slope of the time–concentration profile (precipitation rate) ([2]; 0.1% (w/v) PVP K15 compared with PVP K30, K60 and K120, p < 0.05)","Slope of the time–concentration profile (precipitation rate) ([2]; PVP K15, K30, K60 and K120, concentration increased from 0.1 to 0.5% (w/v), p < 0.05)","Induction time (tind) ([2]; PVP K15, concentration increased from 0.1 to 0.5% and again from 0.5 to 1% (w/v), p < 0.05)","Induction time (tind) ([2]; PVP K30, concentration increased from 0.1 to 0.5% (w/v), p > 0.05)","Induction time (tind) ([2]; PVP K30, concentration increased from 0.5 to 1% (w/v), p < 0.05)","Induction time (tind) ([2]; PVP K60 and K120, concentration increased from 0.1 to 0.5% and again from 0.5 to 1% (w/v), p > 0.05)","Equilibrium solubility [1, 5]","Equilibrium solubility [1, 6]","Induction time (tind) [2, 8]","Slope of the time–concentration profile (precipitation rate) [2, 9]","Slope of the time–concentration profile (precipitation rate) [2, 10]",Onset time of nucleation [3],"Equilibrium solubility ([1]; increasing the concentration of PVP to 1% (w/v), p < 0.05)"
"CCCSc1ccc2nc(NC(=O)OC)[nH]c2c1 [albendazole, Albendazole]",No statistically significant increase,statistically significant difference,significant influence,no significant influence,no statistically significant differences,,,,,,,,no statistically significant increase,statistically significant increase,statistically significant increase,statistically significant difference,no statistically significant differences,,
